Experimental data as given in patent publication US8507463B2, “Nucleotide analogue prodrug and the preparation thereof” (Jiangsu Chia Tai Tianqing Pharmaceutical Co., Ltd., priority 2005, dated 2013).
Counter-ions that a name gives are not always drawn.

Columns and labels:
[1] = test system: Duck Hepatitis B Virus; experiment: Anti-viral (anti-HBV) test in vivo, DHBV-DNA level by PCR; design: species or system GaoYou pockmark ducks; conditions: ducks, once a day, day 0 level as base line of 100
Method: Two-month old pockmark ducks vertically infected with Duck Hepatitis B Virus were selected as animal models to conduct anti-HBV test in vivo, the efficacy was investigated. 80 GaoYou pockmark ducks were divided randomly into. 8 groups, 10 ducks per groups, three groups were given TD fumarate at the dosage of 5, 15, 45 mg/kg once a day respectively, other three groups were given Tenofovir Disoproxil Fumarate at the dosage of 5, 15, 45 mg/kg once a day respectively, other one group was given Adefovir Dipivoxil at the dosage of 15 mg/kg once a day and the remaining group was blank control group. All the groups were administered for 28 days, and blood samples were taken every 7 days to determine the inhibitory effect to the DHBV-DNA level by PCR, inhibition rate was listed in the following table.

[2] = format: physicochemical; conditions: for amount of solvent (ml), 0.1N HCl / amount of solvent (ml), 0.1N NaOH / amount of solvent (ml), anhydrous ethanol / amount of solvent (ml), methanol / amount of solvent (ml), water: to dissolve 1 g of sample
[3] = Light exposure test (4500±500 Lx); format: physicochemical; conditions: light 4500±500 Lx
Text: Samples were evenly spread out and placed in open culture dishes and the thickness thereof was less than 5 mm, then distances were adjusted until the illumination intensity was 4500±500 Lx, samples were taken on the fifth and tenth day respectively for determination, compared with the result of day 0, results were listed in the table below: […]

[4] = High temperature test (60° C.); format: physicochemical; conditions: sealed ampoules
Method: Samples were sealed in clean glass ampoules and put in 60° C. thermostatic drying chamber, then they were taken on the fifth and tenth day respectively for determination, compared with the result of day 0, results were listed in the table below:
Samples were sealed in clean glass ampoules and put in 60° C. thermostatic drying chamber, then they were taken on the fifth and tenth day respectively for determination, compared with the result of day 0, results were listed in the table below

[5] = High humidity test (room temperature, relative humidity 75±5%); format: physicochemical; conditions: 25° C.
Method: Samples were evenly spread out and placed in open culture dishes, wherein the thickness thereof was less than 5 mm, put in a thermostatic drying chamber at room temperature (25° C.) with relative humidity of 75±5%. Then the samples were taken on the fifth and tenth day respectively for determination, compared with the result of day 0, results were listed in the table below

[6] = Acceleration test (40° C., relative humidity 75%); format: physicochemical
Method: Samples were sealed with polyethylene plastic bags, placed in the thermostatic drying chamber at 40±2° C. with relative humidity of 75±5% for 3 months. Then the samples were taken at the end of the first, second and third month respectively for determination, compared with the result of day 0, results were listed in the table below: […]

[7] = Stability analysis, overall conclusion in words; format: physicochemical; conditions: from light, high temperature, high humidity and acceleration tests

| SMILES | solubility conclusion, 0.1N HCl [2] | solubility conclusion, 0.1N NaOH [2] | solubility conclusion, anhydrous ethanol [2] | solubility conclusion, methanol [2] | amount of solvent (ml), 0.1N HCl [2] | amount of solvent (ml), 0.1N NaOH [2] | amount of solvent (ml), anhydrous ethanol [2] | amount of solvent (ml), methanol [2] | amount of solvent (ml), water ([2]; water) | solubility conclusion, water ([2]; water) | content (%) ([3]; day 0) | content (%) ([3]; day 5) | content (%) ([3]; day 10) | content (%) ([4]; day 0) | content (%) ([4]; day 5) | content (%) ([4]; day 10) | content (%) ([5]; day 0) | Weight gain after moisture absorption (%) ([5]; day 5) | content (%) ([5]; day 5) | Weight gain after moisture absorption (%) ([5]; day 10) | further results |
| --- | --- | --- | --- | --- | --- | --- | --- | --- | --- | --- | --- | --- | --- | --- | --- | --- | --- | --- | --- | --- | --- |
| CC(C)OC(=O)OCOP(=O)(CO[C@H](C)Cn1cnc2c(N)ncnc21)OCOC(=O)OC(C)C [Tenofovir Disoproxil Fumarate] | – | – | – | – | – | – | – | – | – | – | – | – | – | – | – | – | – | – | – | – | DHBV-DNA level, First week ([1]; 5 mg/ml group): 90 ± 9; DHBV-DNA level, Fourth week ([1]; 5 mg/ml group): 50 ± 7; DHBV-DNA level, Second week ([1]; 5 mg/ml group): 79 ± 5; DHBV-DNA level, Third week ([1]; 5 mg/ml group): 65 ± 6; DHBV-DNA level, First week ([1]; 15 mg/ml group): 83 ± 6; DHBV-DNA level, Fourth week ([1]; 15 mg/ml group): 37 ± 8; DHBV-DNA level, Second week ([1]; 15 mg/ml group): 66 ± 7; DHBV-DNA level, Third week ([1]; 15 mg/ml group): 53 ± 5; DHBV-DNA level, First week ([1]; 45 mg/ml group): 75 ± 9; DHBV-DNA level, Fourth week ([1]; 45 mg/ml group): 25 ± 7; DHBV-DNA level, Second week ([1]; 45 mg/ml group): 43 ± 8; DHBV-DNA level, Third week ([1]; 45 mg/ml group): 35 ± 6 |
| CC(Cn1cnc2c(N)ncnc21)OCP(=O)(OCOC(=O)C(C)(C)C)OCOC(=O)C(C)(C)C.CC1(C)CCC2(C(=O)O)CCC3(C)C(=CCC4C5(C)CCC(O)C(C)(C)C5CCC43C)C2C1 (stereo not shown) [TD oleanolate] | not | not soluble | slightly | slightly | >1000 mL | >1000 mL | 650 mL | 760 mL | >1000 mL | not soluble | 99.2% | 99.0% | 99.3% | 99.0% | 98.9% | 98.6% | 99.2% | 0% | 99.1% | 0% | content (%) ([5]; day 10): 99.1%; content (%) ([6]; end of month 1): 98.7%; content (%) ([6]; end of month 2): 98.5%; content (%) ([6]; end of month 3): 98.4%; content (%) ([6]; month 0): 99.2% |
| C[C@H](Cn1cnc2c(N)ncnc21)OCP(=O)(OCOC(=O)C(C)(C)C)OCOC(=O)C(C)(C)C [TD crystalline form B, 9-[2-(R)-[bis[pivaloyloxymethoxy]-phosphinylmethoxy]propyl]adenine] | soluble | slightly | freely soluble | freely soluble | 27.3 mL | 790 mL | 6.0 mL | 1.5 mL | 840 mL | slightly | 99.2% | 98.8% | 98.7% | 98.8% | 97.7% | 97.0% | 99.6% | 0% | 98.2% | 0.2% | content (%) ([5]; day 10): 96.9%; content (%) ([6]; end of month 1): 95.8%; content (%) ([6]; end of month 2): 92.7%; content (%) ([6]; end of month 3): 88.7%; stability, overall conclusion in words [7]: good stabilities |
| C[C@H](Cn1cnc2c(N)ncnc21)OCP(=O)(OCOC(=O)C(C)(C)C)OCOC(=O)C(C)(C)C [amorphous TD, 9-[2-(R)-[bis[pivaloyloxymethoxy]-phosphinylmethoxy]propyl]adenine] | soluble | slightly | freely soluble | freely soluble | 25.2 mL | 613 mL | 5.6 mL | 2.0 mL | 380 mL | soluble | 98.5% | 98.3% | 98.1% | 98.5% | 97.5% | 97.1% | 99.0% | 1.0% | 97.9% | 2.3% | water solubility compared with other solid TD forms, in words ([2]; water): better solubility than crystalline TD in water; content (%) ([5]; day 10): 95.8%; content (%) ([6]; end of month 1): 92.3%; content (%) ([6]; end of month 2): 88.9%; content (%) ([6]; end of month 3): 82.8%; content (%) ([6]; month 0): 99.0% |
